Several values for one entry are separate records, joined by “and”; a condition that tells them apart may be missing. Equal values may be shown once.
Key:
[1] = target: T1, Zea mays bx8 glucosyl transferase (SEQ ID 2) (Zea mays, UniProt Q8W2B7); assay: LC/MS glucosyl transferase assay (glucoside peak area), purified enzyme; format: biochemical; conditions: for integrated peak area of beta-glucoside product: LC/MS, about 60 min, ~15 pmol enzyme, relative quantification only
T1 construct: His tag; made in house
T1 sequence (Q8W2B7 1-459): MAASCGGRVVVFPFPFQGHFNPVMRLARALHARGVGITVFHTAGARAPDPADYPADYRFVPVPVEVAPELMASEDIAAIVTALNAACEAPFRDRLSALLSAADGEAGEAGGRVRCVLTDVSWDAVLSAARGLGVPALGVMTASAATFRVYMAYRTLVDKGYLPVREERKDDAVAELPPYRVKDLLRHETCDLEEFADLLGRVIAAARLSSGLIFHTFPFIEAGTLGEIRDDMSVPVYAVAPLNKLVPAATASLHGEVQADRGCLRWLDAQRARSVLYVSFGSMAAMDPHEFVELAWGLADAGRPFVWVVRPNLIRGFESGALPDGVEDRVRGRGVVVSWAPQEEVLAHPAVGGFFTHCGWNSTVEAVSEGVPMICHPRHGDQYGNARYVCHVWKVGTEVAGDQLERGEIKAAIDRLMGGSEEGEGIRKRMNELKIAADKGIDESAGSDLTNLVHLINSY
Procedure: In an alternative method for assaying the various enzymes, the test glucosyl transferase enzyme is reacted with substrates exactly as above except that the assay is stopped by adding an equal volume of acetonitrile. Alternatively 50 or 100 μl samples from assay reactions are added to 500 μl ethyl acetate to stop the reaction. In this case samples are then vortexed and 400 μl of the ethyl acetate partition removed, dried down, and resuspended in 100 μl 80:20 acetonitrile/water. The formation of product gluco side and/or disappearance of substrate test herbicide is then monitored directly by LC/MS. Samples are analyzed by LC-MS using an Agilent 1290 liquid chromatography system and Thermo Q-Exactive mass spectrometer. The chromatography is achieved on a Waters Acquity C18 BEH (50×2.1 mm) 1.7 μm particle size column, using a 6 minute gradient run of Water (0.2% formic acid) and Acetonitrile. The Q-Exactive is operated in positive ionisation electrospray mode, using Full scan-AIF mode, at 35,000 resolution, between 100-800 m/z. All analytes are identified from the full scan data to within at least 5 ppm accuracy of their predicted pseudo-molecular ion [M+H]^+ m/z value. In order to obtain quantitative data standard curves are run using herbicides and herbicide glucosides synthesized as standards. Where these synthetic glucosides were not available the LC/MS assay could only be used to provide relative data.
DNA sequences, optimized for E. coli codon usage, were cloned, expressed and the various proteins purified and assayed as described in the foregoing examples. Using the UDP assay (as described in examples 1, 3 and 6) the data obtained from the Zea mays bx8 w/t protein and its variants was noisy due to relatively high background rates in DMSO reagent blanks. The values reported in the table 15 were thus monitored by LC/MS as described in example 1.
DNA sequences, optimized for E. coli codon usage, are cloned, expressed and the various proteins purified and assayed as described in the foregoing examples. As in Example 4, a DNA sequence is designed and synthesized to express the N-terminally his tagged Zea mays bx8 (SEQ ID No: 2). However in this case the DNA sequence is modified to further include a peptide insertion “GIGVD”=SEQ ID No: 102 in place of D442 of SEQ ID No: 2 and as indicated in Table 2. The resultant modified sequence is cloned into the E. coli expression plasmid pET24a using 5′ NdeI and 3′ XhoI restriction sites, expressed, purified and assayed. […] In LC/MS assays run for 30 min and similar to those described in example 7 the integrated peak areas for glucoside product from herbicide V from the w/t Zea mays bx8 SEQ ID NO:2 was 1.5E6 units whereas the corresponding number for the equivalent protein containing the GIGVD peptide insert was 2.5E6 units. […]

[2] = target: T2, SEQ ID NO 20, mutant of Zea mays bx9 glucosyl transferase (Zea mays, UniProt B4G072, A281K/A334K/F21Y/L194V/M279F/S117V); format: biochemical; conditions: lower block, concentration printed only in upper block: V 0.300, VII 0.210; IV, VIII, XI, XXI, XX, XVIII, XVI, XV, XIV 0.200; others 1.000 mM
T2 construct: His tag (C); made in house
T2 sequence (B4G072 whole entry F21Y/S117V/L194V/M279F/A281K/A334K): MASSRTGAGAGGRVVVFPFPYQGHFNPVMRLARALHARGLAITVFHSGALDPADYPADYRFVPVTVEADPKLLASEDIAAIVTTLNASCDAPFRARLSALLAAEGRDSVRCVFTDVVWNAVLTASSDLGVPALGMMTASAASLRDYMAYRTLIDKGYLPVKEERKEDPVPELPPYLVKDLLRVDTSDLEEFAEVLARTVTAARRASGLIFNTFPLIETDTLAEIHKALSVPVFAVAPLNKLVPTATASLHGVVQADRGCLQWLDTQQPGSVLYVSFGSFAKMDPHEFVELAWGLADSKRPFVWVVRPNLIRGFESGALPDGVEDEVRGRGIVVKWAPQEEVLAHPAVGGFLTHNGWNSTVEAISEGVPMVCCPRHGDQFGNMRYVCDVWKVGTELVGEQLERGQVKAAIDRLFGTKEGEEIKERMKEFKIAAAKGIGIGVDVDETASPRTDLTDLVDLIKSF
Procedure: Glucosyl transferase activity is assayed via measurement of acceptor substrate-dependent production of UDP from ultrapure UDP-glucose using the Promega UDP-Glo™ method and according to the manufacturer's instructions. Assays are run in 96 well microtiter plates.
Enzyme, typically at a stock concentration of ˜2 mg/ml is diluted to an appropriate concentration in 50 mM K^+ Hepes buffer at pH7.5 containing 0.5 mg/mL bovine serum albumin (BSA) and 5 ul aliquots of this diluted enzyme added to each well of a Perkin Elmer white ½ area 96 well plate. […] Assays are run for an appropriate time (usually 10 to 60 min) so that the amount of UDP formed lies within the most nearly linear part of the UDP standard curve and are stopped with the addition and mixing of 25 ul UDP-Glo™ detection reagent (prepared as described below). Plates are then incubated at room temperature for 60 minutes and then read in a luminescence plate reader (Perkin Elmer Envision 2130 Multilabel Reader). A UDP standard curve is run alongside each set of assays and reagent blank control assays run with DMSO in place of test herbicide.
The UDP-Glo™ reagents are made up and used according to the manufacturer's instructions. Thus, Nucleotide Detection Buffer and ATP are combined to make nucleotide detection reagent (NDR) dispensed into aliquots and frozen to be freshly thawed before use.
Km and kcat values in respect of UDP-glucose are derived by carrying out experiments to measure initial rates over a suitable range of concentrations of UDP glucose out at a fixed near saturating concentration of acceptor substrate. Best fit values of kcat, Km and kcat/Km are obtained by direct fitting of the data to the Michaelis-Menten equation using Graphpad Prism™ software.
All of these proteins were C-terminally his-tagged, expressed and purified as described in Example 1. Assays were run and analyzed as described in example 1.

Structure (SMILES)	integrated peak area of beta-glucoside product [1]	Activity [2]	integrated peak area of glucoside product ([1]; LC/MS assay run for 30 min, N-terminally his tagged)
CN1CC(O)N(c2cc(C(F)(F)F)c(Cl)cn2)C1=O (stereo not shown) [XI]	1.90E+04 and 2.36E+04 and 1.84E+04	1.046 pmol/sec/pmol enzyme	–
CON1C(=O)N(c2cc(C(F)(F)F)ccn2)C(O)[C@@H]1C (stereo partly shown) [Compound VI]	8.08E+06 and 7.57E+06 and 8.81E+06 and 7.78E+06	–	–
CN1CC(O)N(c2cc(C(F)(F)F)ccn2)C1=O (stereo not shown) [Compound V]	2.52E+06 and 2.97E+06	1.889 pmol/sec/pmol enzyme	1.5E6 units
Cc1cnc(N2C(=O)N(C)CC2O)cc1C(F)(F)F (stereo not shown) [XVIII]	–	1.141 pmol/sec/pmol enzyme	–

Reference: patent US20200270588A1, “GLUCOSYL TRANSFERASE POLYPEPTIDES AND METHODS OF USE” (Syngenta Participations AG, priority 2017, published 2020)
